From US7550485B2, “Substituted N-heterocycle derivatives and methods of their use” (Wyeth, priority 2003, dated 2009)
Structures can show the parent of a compound that is named as a salt.

Molecular target: T1, hNET (Homo sapiens, UniProt P23975)
T1 construct: expressed in transfected cells
Assay: Norepinephrine (NE) uptake assay in MDCK-Net6 cells stably transfected with human hNET
Assay type: cell-based
Details: [3H]NE uptake; for inhibition at 1 µM: MDCK-Net6, 1 μM test compound; for EC50: test range 1 to 10,000 nM
Protocol: MDCK-Net6 cells, stably transfected with human hNET (Pacholczyk, T., R. D. Blakely, and S. G. Amara, Nature, 1991, 350(6316): p. 350-4) were cultured in growth medium containing high glucose DMEM (Gibco, Cat. No. 11995), 10% FBS (dialyzed, heat-inactivated, US Bio-Technologies, Lot FBD1129HI) and 500 μg/ml G418 (Gibco, Cat. No. 10131). Cells were plated at 300,000/T75 flask and cells were split twice weekly. The JAR cell line (human placental choriocarcinoma) was purchased from ATCC (Cat. No. HTB-144). The cells were cultured in growth medium containing RPMI 1640 (Gibco, Cat. No. 72400), 10% FBS (Irvine, Cat. No. 3000), 1% sodium pyruvate (Gibco, Cat. No. 1136) and 0.25% glucose. Cells were plated at 250,000 cells/T75 flask and split twice weekly. For all assays, cells were plated in Wallac 96-well sterile plates (PerkinElmer, Cat. No. 3983498).
Norepinephrine (NE) Uptake Assay
On day 1, cells were plated at 3,000 cells/well in growth medium and maintained in a cell incubator (37° C., 5% CO2). On day 2, growth medium was replaced with 200 μl of assay buffer (25 mM HEPES; 120 mM NaCl; 5 mM KCl; 2.5 mM CaCl2; 1.2 mM MgSO4; 2 mg/ml glucose (pH 7.4, 37° C.)) containing 0.2 mg/ml ascorbic acid and 10 μM pargyline. Plates containing cells with […] of assay buffer were equilibrated for 10 minutes at 37° C. prior to addition of compounds. A stock solution of desipramine was prepared in DMSO (10 mM) and delivered to triplicate wells containing cells for a final test concentration of 1 μM. Data from these wells were used to define non-specific NE uptake (minimum NE uptake). Test compounds were prepared in DMSO (10 mM) and diluted in assay buffer according to test range (1 to 10,000 nM). Twenty-five microliters of assay buffer (maximum NE uptake) or test compound were added directly to triplicate wells containing cells in 200 μl of assay buffer. The cells in assay buffer with test compounds were incubated for 20 minutes at 37° C. To initiate the NE uptake, [^3H]NE diluted in assay buffer (120 nM final assay concentration) was delivered in 25 μl aliquots to each well and the plates were incubated for 5 minutes (37° C.). The reaction was terminated by decanting the supernatant from the plate. The plates containing cells were washed twice with 200 μl assay buffer (37° C.) to remove free radioligand. The plates were then inverted, left to dry for 2 minutes, then reinverted and air-dried for an additional 10 minutes. The cells were lysed in 25 μl of 0.25 N NaOH solution (4° C.), placed on a shake table and vigorously shaken for 5 minutes. After cell lysis, 75 μl of scintillation cocktail was added to each well and the plates were sealed with film tape. The plates were returned to the shake table and vigorously shaken for a minimum of 10 minutes to ensure adequate partitioning of organic and aqueous solutions. The plates were counted in a Wallac Microbeta counter (PerkinElmer) to collect the raw cpm data.
For each experiment, a data stream of cpm values collected from the Wallac Microbeta counter was downloaded to a Microsoft Excel statistical application program. Calculations of EC50 values were made using the transformed-both-sides logistic dose response program written by Wyeth Biometrics Department. The statistical program uses mean cpm values from wells representing maximum binding or uptake (assay buffer) and mean cpm values from wells representing minimum binding or uptake ((1 μM desipramine (hNET) or 1 μM paroxetine (hSERT)). Estimation of the EC50 value was completed on a log scale and the line was fit between the maximum and minimum binding or uptake values. All graphic data representation was generated by normalizing each data point to a mean percent based on the maximum and minimum binding or uptake values. The EC50 values reported from multiple experiments were calculated by pooling the raw data from each experiment and analyzing the pooled data as one experiment.

T1 sequence (P23975 whole entry): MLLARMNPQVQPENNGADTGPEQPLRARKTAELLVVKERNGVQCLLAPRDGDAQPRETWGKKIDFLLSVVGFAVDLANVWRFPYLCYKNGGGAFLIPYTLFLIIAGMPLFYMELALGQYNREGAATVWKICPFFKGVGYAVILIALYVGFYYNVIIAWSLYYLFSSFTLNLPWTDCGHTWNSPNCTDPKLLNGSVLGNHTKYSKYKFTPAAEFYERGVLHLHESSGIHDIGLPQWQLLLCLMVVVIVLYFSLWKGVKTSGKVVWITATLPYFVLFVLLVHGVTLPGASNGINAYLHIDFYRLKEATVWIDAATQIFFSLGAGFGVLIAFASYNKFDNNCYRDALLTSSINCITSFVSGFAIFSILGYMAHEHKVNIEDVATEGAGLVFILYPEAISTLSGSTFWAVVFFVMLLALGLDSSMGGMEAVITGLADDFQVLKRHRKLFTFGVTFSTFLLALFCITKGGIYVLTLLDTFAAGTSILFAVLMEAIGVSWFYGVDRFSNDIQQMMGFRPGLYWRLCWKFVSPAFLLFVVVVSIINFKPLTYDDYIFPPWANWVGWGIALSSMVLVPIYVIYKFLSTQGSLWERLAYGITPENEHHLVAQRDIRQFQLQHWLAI

SMILES	inhibition at 1 µM [%]	EC50 [nM]	% Inhibition @ 1 μM (hNET) (1 μM test compound, dihydrochloride, 1 µM) [%]
COc1ccc2cc([C@@H](CN3CCC(N4CCCCC4)CC3)C3(O)CCCCC3)ccc2c1 (single isomer, unassigned) [Example 353, dihydrochloride]	67	320	–
COc1ccc2cc([C@H](CN3CCC(N4CCCCC4)CC3)C3(O)CCCCC3)ccc2c1 (single isomer, unassigned) [Example 354, dihydrochloride]	82	400	–
CNC1CCN(C[C@H](c2cccc(Cl)c2)C2CCCCC2)CC1 (single isomer, unassigned) [Example 355, dihydrochloride]	71	730	–
CNC1CCN(C[C@@H](c2cccc(Cl)c2)C2CCCCC2)CC1 (single isomer, unassigned) [Example 356, dihydrochloride]	56	–	–
CNC1CCN(CC(c2cccc(C(F)(F)F)c2)C2(O)CCCCC2)C1 (stereo in doubt) [Example 223, 1-{2-[(3R)-3-(methylamino)pyrrolidin-1-yl]-1-[3-(trifluoromethyl)phenyl]ethyl}cyclohexanol dihydrochloride]	–	–	41.2
OC1(C(CN2CCC(N3CCCCC3)CC2)c2cccc(Cl)c2)CCCCC1 (stereo not drawn) [Example 2, 1-[2-(1,4′-bipiperidin-1′-yl)-1-(3-chlorophenyl)ethyl]cyclohexanol dihydrochloride]	100	45	–
OC1(C(CN2CCC(N3CCCC3)CC2)c2cccc(Cl)c2)CCCCC1 (stereo not drawn) [Example 3, 1-[1-(3-chlorophenyl)-2-(4-pyrrolidin-1-ylpiperidin-1-yl)ethyl]cyclohexanol dihydrochloride]	100	53	–
OC1(C(CN2CCC(N3CCCCC3)CC2)c2cccc(Br)c2)CCCCC1 (stereo not drawn) [Example 4, 1-[2-(1,4′-bipiperidin-1′-yl)-1-(3-bromophenyl)ethyl]cyclohexanol dihydrochloride]	97	160	–
OC1(C(CN2CCC(N3CCCC3)CC2)c2cccc(Br)c2)CCCCC1 (stereo not drawn) [Example 7, 1-[1-(3-bromophenyl)-2-(4-pyrrolidin-1-ylpiperidin-1-yl)ethyl]cyclohexanol dihydrochloride]	96	70	–
COc1ccc(C(CN2CCC(N3CCCCC3)CC2)C2(O)CCCCC2)cc1Br (stereo not drawn) [Example 8, 1-[2-(1,4′-bipiperidin-1′-yl)-1-(3-bromo-4-methoxyphenyl)ethyl]cyclohexanol dihydrochloride]	95	140	–
COc1ccc(C(CN2CCC(N3CCCC3)CC2)C2(O)CCCCC2)cc1Br (stereo not drawn) [Example 9, 1-[1-(3-bromo-4-methoxyphenyl)-2-(4-pyrrolidin-1-ylpiperidin-1-yl)ethyl]cyclohexanol dihydrochloride]	93	180	–
OC1(C(CN2CCC(N3CCCC3)CC2)c2ccc(Cl)c(Cl)c2)CCCCC1 (stereo not drawn) [Example 11, 1-[1-(3,4-dichlorophenyl)-2-(4-pyrrolidin-1-ylpiperidin-1-yl)ethyl]cyclohexanol dihydrochloride]	91	260	–
CNC1CCN(CC(c2ccc(Cl)c(Cl)c2)C2(O)CCCCC2)CC1 (stereo not drawn) [Example 13, 1-{1-(3,4-dichlorophenyl)-2-[4-(methylamino)piperidin-1-yl]ethyl}cyclohexanol dihydrochloride]	89	210	–
NC1CCN(CC(c2ccc(Cl)c(Cl)c2)C2(O)CCCCC2)CC1 (stereo not drawn) [Example 14, 1-[2-(4-aminopiperidin-1-yl)-1-(3,4-dichlorophenyl)ethyl]cyclohexanol dihydrochloride]	84	89	–
N[C@H]1CCN(CC(c2cccc(Cl)c2)C2(O)CCCCC2)C1 (stereo partly drawn) [Example 16, 1-[2-[(3S)-3-aminopyrrolidin-1-yl]-1-(3-chlorophenyl)ethyl]cyclohexanol dihydrochloride]	89	120	–
CNC1CCN(CC(c2cccc(Cl)c2)C2(O)CCCCC2)CC1 (stereo not drawn) [Example 17, 1-{1-(3-chlorophenyl)-2-[4-(methylamino)piperidin-1-yl]ethyl}cyclohexanol dihydrochloride]	88	91	–
NC1CCN(CC(c2cccc(Br)c2)C2(O)CCCCC2)CC1 (stereo not drawn) [Example 18, 1-[2-(4-aminopiperidin-1-yl)-1-(3-bromophenyl)ethyl]cyclohexanol dihydrochloride]	88	200	–
CNC1CCN(CC(c2cccc(Br)c2)C2(O)CCCCC2)CC1 (stereo not drawn) [Example 19, 1-{1-(3-bromophenyl)-2-[4-(methylamino)piperidin-1-yl]ethyl}cyclohexanol dihydrochloride]	88	88	–
OC1(C(CN2CCC(N3CCCCC3)CC2)c2cccc(C(F)(F)F)c2)CCCCC1 (stereo not drawn) [Example 20, 1-{2-(1,4′-bipiperidin-1′-yl)-1-[3-(trifluoromethyl)phenyl]ethyl}cyclohexanol dihydrochloride]	88	260	–
OC1(C(CN2CCC(N3CCCCC3)CC2)c2ccc3ccccc3c2)CCCCC1 (stereo not drawn) [Example 22, 1-[2-(1,4′-bipiperidin-1′-yl)-1-(2-naphthyl)ethyl]cyclohexanol dihydrochloride]	85	160	–
COc1ccc(C(CN2CCC(N)CC2)C2(O)CCCCC2)cc1Br (stereo not drawn) [Example 25, 1-[2-(4-aminopiperidin-1-yl)-1-(3-bromo-4-methoxyphenyl)ethyl]cyclohexanol dihydrochloride]	85	200	–
OC1(C(CN2CCC(N3CCCC3)CC2)c2cccc(C(F)(F)F)c2)CCCCC1 (stereo not drawn) [Example 26, 1-{2-(4-pyrrolidin-1-ylpiperidin-1-yl)-1-[3-(trifluoromethyl)phenyl]ethyl}cyclohexanol dihydrochloride]	84	200	–
CNC1CCN(CC(c2ccc(OC)c(Br)c2)C2(O)CCCCC2)CC1 (stereo not drawn) [Example 29, 1-{1-(3-bromo-4-methoxyphenyl)-2-[4-(methylamino)piperidin-1-yl]ethyl}cyclohexanol dihydrochloride]	79	150	–
CNC1CCN(CC(c2cccc(C(F)(F)F)c2)C2(O)CCCCC2)CC1 (stereo not drawn) [Example 30, 1-{2-[4-(methylamino)piperidin-1-yl]-1-[3-(trifluoromethyl)phenyl]ethyl}cyclohexanol dihydrochloride]	79	530	–
OC1(C(CN2CCC(N3CCCC3)CC2)c2ccc3ccccc3c2)CCCCC1 (stereo not drawn) [Example 31, 1-[1-(2-naphthyl)-2-(4-pyrrolidin-1-ylpiperidin-1-yl)ethyl]cyclohexanol dihydrochloride]	70	50	–
NC1CCN(CC(c2ccc3ccccc3c2)C2(O)CCCCC2)CC1 (stereo not drawn) [Example 32, 1-[2-(4-aminopiperidin-1-yl)-1-(2-naphthyl)ethyl]cyclohexanol dihydrochloride]	69	170	–
NC1CCN(CC(c2cccc(Cl)c2)C2(O)CCCCC2)CC1 (stereo not drawn) [Example 35, 1-[2-(4-aminopiperidin-1-yl)-1-(3-chlorophenyl)ethyl]cyclohexanol dihydrochloride]	59	52	–
CN(C)C1CCN(CC(c2cccc(Cl)c2)C2(O)CCCCC2)CC1 (stereo not drawn) [Example 36, 1-{1-(3-chlorophenyl)-2-[4-(dimethylamino)piperidin-1-yl]ethyl}cyclohexanol dihydrochloride]	57	130	–
